One data set concerns the target Histone deacetylase 1 (Homo sapiens, UniProt Q13547).
The next data set relates to COLO 205. Put plainly: Antiproliferative activity against human COLO205 cells after 96 hrs by celltiter 96 assay. The data set is classed as functional, cell-based. To be noted: COLO 205, 96 h.
The test system of the next data set is A2780. In words: Antiproliferative activity against human A2780 cells after 96 hrs by celltiter 96 assay. The data set is classed as functional, cell-based. The following applies: A2780, 96 h.
Another data set has as its system PC-3. In words: Antiproliferative activity against human PC3 cells after 96 hrs by celltiter 96 assay. It counts as functional, cell-based. To be noted: PC-3, 96 h.
A further data set concerns HCT-116. Put plainly: Antiproliferative activity against human HCT116 cells after 96 hrs by celltiter 96 assay. It counts as functional, cell-based. To be noted: HCT-116, 96 h.
Data set [1] is described as follows: Half life in mouse liver microsomes. To be noted: liver microsomes. The data set is classed as ADME, Microsome.
Data set [2] in a line: Half life in human liver microsomes. It counts as ADME, Microsome.

Structures are written as SMILES.

Chain of Histone deacetylase 1 (Q13547 whole entry): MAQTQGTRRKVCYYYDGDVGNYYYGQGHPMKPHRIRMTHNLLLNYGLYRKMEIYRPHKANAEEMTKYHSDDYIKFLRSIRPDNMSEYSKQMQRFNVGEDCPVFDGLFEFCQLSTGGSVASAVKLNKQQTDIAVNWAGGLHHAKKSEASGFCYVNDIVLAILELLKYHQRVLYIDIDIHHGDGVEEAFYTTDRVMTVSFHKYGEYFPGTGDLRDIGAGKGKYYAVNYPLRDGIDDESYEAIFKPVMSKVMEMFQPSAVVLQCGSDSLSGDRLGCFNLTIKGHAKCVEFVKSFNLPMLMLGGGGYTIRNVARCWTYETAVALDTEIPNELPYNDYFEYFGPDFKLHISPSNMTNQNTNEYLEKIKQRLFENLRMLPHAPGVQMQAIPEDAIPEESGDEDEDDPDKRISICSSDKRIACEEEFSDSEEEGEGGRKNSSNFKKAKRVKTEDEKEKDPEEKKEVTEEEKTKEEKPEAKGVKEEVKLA
Description for Histone deacetylase 1: Inhibition of full length recombinant HDAC1 using Fluor de Lys as substrate by fluorescence assay

Take `CCCCCCc1nc2cc(/C=C/C(=O)NO)ccc2n1C1CCCNC1` (stereo not given): the IC50 against Histone deacetylase 1 amounted to 105 nM; in the data set on COLO 205, 1340 nM.

With `CCN(CC)CCc1nc2cc(/C=C/C(=O)NO)ccc2n1CCC(C)C`, the IC50 was found to be 575 nM against Histone deacetylase 1 and 6810 nM in the data set with COLO 205.

As for `CCCCCCc1nc2cc(/C=C/C(=O)NO)ccc2n1CCNC`, the IC50 on Histone deacetylase 1 amounted to 29 nM; with COLO 205 it was 550 nM.

Consider `CCCCCc1nc2cc(/C=C/C(=O)NO)ccc2n1C1CCCN(C)C1` (stereo not given), for which the values for the IC50 against Histone deacetylase 1 and in the data set on COLO 205 were 158 nM and 2100 nM, respectively.

As for `CCCCc1nc2cc(/C=C/C(=O)NO)ccc2n1C1CCCNC1` (stereo not given), the values for the IC50 against Histone deacetylase 1 and with COLO 205 were 190 nM and 4870 nM, respectively.

For the molecule `CCCCCc1nc2cc(/C=C/C(=O)NO)ccc2n1CCNC`, the IC50 worked out at 41 nM against Histone deacetylase 1 and 950 nM in the data set on COLO 205.

Take `CC(C)Cc1nc2cc(/C=C/C(=O)NO)ccc2n1CC(C)(C)CN(C)C`: the results for the IC50 against Histone deacetylase 1 and in the data set with COLO 205 were 175 nM and 2690 nM, respectively.

For `CCNCCn1c(CC(C)CC(C)(C)C)nc2cc(/C=C/C(=O)NO)ccc21` (stereo not given), the IC50 with A2780 is 140 nM; on Histone deacetylase 1 it was 23 nM; with PC-3, 100 nM; in the data set with HCT-116 it was 270 nM; with COLO 205 it was 140 nM.

Regarding `CCCc1nc2cc(/C=C/C(=O)NO)ccc2n1CCN(CC)CC`, the results for the IC50 at Histone deacetylase 1 and in the data set on COLO 205 were 155 nM and 980 nM, respectively.

For `CCCCc1nc2cc(/C=C/C(=O)NO)ccc2n1CCN(C)C(C)C`, the IC50 at Histone deacetylase 1 is 45 nM; in the data set with COLO 205, 540 nM.

As for `CCCCc1nc2cc(/C=C/C(=O)NO)ccc2n1C1CCNC1` (stereo not given), the IC50 stood at 110 nM against Histone deacetylase 1 and 16400 nM in the data set on COLO 205.

`CN(C)CC(C)(C)Cn1c(C2CCCCC2)nc2cc(/C=C/C(=O)NO)ccc21`: the IC50 worked out at 421 nM at Histone deacetylase 1 and 2450 nM with COLO 205.

With `CCCCCCc1nc2cc(/C=C/C(=O)NO)ccc2n1C1CCNC1` (stereo not given), the IC50 amounted to 41 nM against Histone deacetylase 1 and 1460 nM with COLO 205.

On to `CCCCc1nc2cc(/C=C/C(=O)NO)ccc2n1CCCNC(C)C`, for which the figures for the IC50 on Histone deacetylase 1 and with COLO 205 were 165 nM and 2890 nM, respectively.

On to `CCCCc1nc2cc(/C=C/C(=O)NO)ccc2n1CCN(C(C)C)C(C)C`, for which the IC50 came out at 335 nM against Histone deacetylase 1 and 1870 nM in the data set with COLO 205.

As for `CCN(CC)CCn1c(CC(C)(C)C)nc2cc(/C=C/C(=O)NO)ccc21`, the half-inhibitory concentration (IC50) amounted to 135 nM against Histone deacetylase 1 and 1190 nM in the data set on COLO 205.

For `CCN(CC)CCn1c(CC(C)C)nc2cc(/C=C/C(=O)NO)ccc21`, the IC50 in the data set on A2780 worked out at 1240 nM; against Histone deacetylase 1, 92 nM; with PC-3, 950 nM; with HCT-116, 1300 nM; with COLO 205 it was 810 nM.

Turning to `CN(C)CCn1c(C2CC2c2ccccc2)nc2cc(/C=C/C(=O)NO)ccc21` (stereo not given), the IC50 worked out at 175 nM at Histone deacetylase 1 and 690 nM with COLO 205.

Take `CC/C=C\CCc1nc2cc(/C=C/C(=O)NO)ccc2n1CC(C)(C)CN(C)C`: the IC50 turned out to be 370 nM with A2780; 53 nM against Histone deacetylase 1; 380 nM in the data set on PC-3; 920 nM in the data set on HCT-116; 620 nM with COLO 205.

In the case of `CCCCCCCCc1nc2cc(/C=C/C(=O)NO)ccc2n1CCN`, the half-inhibitory concentration (IC50) came out at 22 nM against Histone deacetylase 1 and 540 nM in the data set with COLO 205.

On to `CC(Cc1nc2cc(/C=C/C(=O)NO)ccc2n1CC(C)(C)CN(C)C)CC(C)(C)C` (stereo not given), for which the half-maximal inhibitory concentration (IC50) with A2780 is 230 nM; against Histone deacetylase 1, 37 nM; in the data set on PC-3, 310 nM; in the data set on HCT-116 it was 410 nM; in the data set with COLO 205, 150 nM.

As to `CCCCCCc1nc2cc(/C=C/C(=O)NO)ccc2n1CCN(CC)CC`, the IC50 on Histone deacetylase 1 was determined as 45 nM; in the data set with COLO 205, 420 nM.

With `NCCn1c(C2CC2c2ccccc2)nc2cc(/C=C/C(=O)NO)ccc21` (stereo not given), the concentration for half-maximal inhibition (IC50) stood at 84 nM at Histone deacetylase 1 and 4530 nM with COLO 205.

Take `CCN(CC)CCn1c(CCc2ccccc2)nc2cc(/C=C/C(=O)NO)ccc21`: the half-life was 5 min in data set [1] and no less than 30 min in data set [2].

On to `CCCCc1nc2cc(/C=C/C(=O)NO)ccc2n1CCN(C)C`, for which the IC50 against Histone deacetylase 1 is 90 nM; with COLO 205, 650 nM.

Regarding `CCCCCc1nc2cc(/C=C/C(=O)NO)ccc2n1CCN(C)CC`, the IC50 came to 41 nM against Histone deacetylase 1 and 450 nM in the data set with COLO 205.

Regarding `CCN(CC)CCn1c(C2CC2c2ccccc2)nc2cc(/C=C/C(=O)NO)ccc21` (trans isomer), the figures for the IC50 against Histone deacetylase 1 and in the data set on COLO 205 were 169 nM and 630 nM, respectively.

Take `CCCCCCCCc1nc2cc(/C=C/C(=O)NO)ccc2n1CCNC`: the IC50 on Histone deacetylase 1 worked out at 15 nM; with COLO 205, 230 nM.

`CCN(CC)CCn1c(CC2CC3CCC2C3)nc2cc(/C=C/C(=O)NO)ccc21` (stereo not given): the IC50 with A2780 was determined as 210 nM; against Histone deacetylase 1, 32 nM; in the data set with PC-3 it was 530 nM; in the data set with HCT-116, 330 nM; with COLO 205, 390 nM.

Turning to `CCCCc1nc2cc(/C=C/C(=O)NO)ccc2n1CCC(C)C`, the IC50 against Histone deacetylase 1 was determined as 2490 nM; with COLO 205 it was 6020 nM.

`CCCCc1nc2cc(/C=C/C(=O)NO)ccc2n1C1CCNCC1` yielded an IC50 in the data set on COLO 205 of 7000 nM. This counts as single-digit micromolar.

For `CCCCc1nc2cc(/C=C/C(=O)NO)ccc2n1CCNCC`, the IC50 in the data set on A2780 turned out to be 760 nM; on Histone deacetylase 1, 77 nM; with PC-3, 380 nM; with HCT-116 it was 1110 nM; with COLO 205, 880 nM.

For the molecule `CCCCCc1nc2cc(/C=C/C(=O)NO)ccc2n1CCNCC`, the results for the half-maximal inhibitory concentration (IC50) against Histone deacetylase 1 and in the data set on COLO 205 were 27 nM and 420 nM, respectively.

Consider `CC(C)c1nc2cc(/C=C/C(=O)NO)ccc2n1CC(C)(C)CN(C)C`, for which the IC50 was determined as 308 nM at Histone deacetylase 1 and 1730 nM in the data set with COLO 205.

Take `CCCCc1nc2cc(/C=C/C(=O)NO)ccc2n1C1CCN(C)C1` (stereo not given): the IC50 was determined as 125 nM against Histone deacetylase 1 and 1090 nM in the data set with COLO 205.

For the molecule `CCCCc1nc2cc(/C=C/C(=O)NO)ccc2n1CC(C)(C)CN(C)C`, the results for the IC50 at Histone deacetylase 1 and in the data set on COLO 205 were 150 nM and 2230 nM, respectively.

Take `CCCCc1nc2cc(/C=C/C(=O)NO)ccc2n1CCN(C)CC`: in the data set on COLO 205, inhibition was half-maximal at 1650 nM (IC50).

These data come from ChEMBL document CHEMBL1828590 (J Med Chem, 2011).
